# Laboratory results published in patent US6900198B2, “Synthetic catalytic free radical scavengers useful as antioxidants for prevention and therapy of disease” (Eukarion, Inc., priority 1995, dated 2005).
# pIC50: −log10 of the molar value.
# How the values were obtained:
# [1] = SOD activity, cytochrome c as acceptor, IC50 (Example 2); assay type: biochemical; settings: read-out: SOD activity IC50 (half-maximally active concentration)
# Experimental: Superoxide dismutase (SOD) activity was assayed by following the inhibition of the reduction of an electron acceptor molecule in the presence of the free-radical generating system xanthine/xanthine oxidase (McCord et al. (1973) Superoxide and Superoxide Dismutase in “Oxidases and Related Redox Systems, vol. I, King et al. eds., University Park press, Baltimore, pp. 51-76). The assay mixture consisted of 50 mM sodium phosphate, pH 7.8, 120 μM xanthine, 0.2 units/ml xanthine oxidase, with acceptor molecule and salen manganese compound, as indicated. Assays were conducted at 27±0.2° C. using a water-jacketed cell holder in a Beckman DU7400 spectrophotometer. In most cases, oxidized cytochrome c, at 0.13 mg/ml, was employed as acceptor and its reduction was monitored spectrophotometrically at 550 nm. In some experiments, nitroblue tetrazolium (NBT), at 80 μM, was substituted for cytochrome c as the acceptor. NBT reduction was also monitored at 550 nm. An estimated extinction coefficient for NBT reduction, 20,800 M^−1cm^−1, determined empirically by exhaustive reduction of NBT in the reaction mixture described above, was employed where indicated. This value agreed well with reported extinction coefficients for reduced tetrazolium dyes. […] Conversion of xanthine to urate was calculated using ε290's of […] for urate and 4050 M^−1cm^−1 for xanthine. […]
# Rat brain slices = assay: Rat brain slice ischemia EPSP system; assay type: cell-based; settings: 50 μM; untreated slices recovered only about 40%
# Experimental: A widely used assay to determine the therapeutic potential of molecules in brain ischemia (stroke) consists of evaluating their ability to prevent irreversible damage induced by an anoxic episode in brain slices maintained under physiological conditions. Rat brain slices were maintained at 35° C. in an interface chamber in an artificial cerebrospinal fluid containing: 124 mM NaCl, 3 mM KCl, 1.25 mM KH2PO4, 3 mM CaCl, 1 mM MgCl2, 26 mM NaHCO3, 10 mM D-glucose, and 2 mM L-ascorbate, continuously gassed with a mixture of O2:CO2 (95:5). The atmosphere of the chamber was also continuously gased with the mixture of O2:CO2 (95:5), except during the anoxic episode when it was replaced by N2. Axons were electrically stimulated and the evoked excitatory post-synaptic potentials (EPSPs) were recorded using microelectrodes.
# The extent of permanent damage can be quantified by measuring both the amplitude (in mV) and the initial slope (in mV/msec) of the EPSP.
# After 5 minutes of baseline recording, O2 was replaced by N2 for an average of 5 minutes. O2 was then reintroduced and recording was continued for another 50 minutes. […] In contrast, recovery in untreated brain slices was only about 40% of pre-ischemia levels.
# As an additional assessment of efficacy, the percentage of viable slices following repeated ischemic episodes was evaluated. […]
# [2] = test system: Isolated Iron-overloaded Rat Hearts; assay: Isolated iron-overloaded rat hearts submitted to ischemia and reperfusion
# Experimental: Rats received an intramuscular injection of 0.25 ml of an iron-dextran solution (100 g iron hydroxide, 99 g dextran, water up to 11) every third day during a 5-week period to achieve a significant iron overload in cardiac tissue. At the end of this treatment, rats were anesthetized with sodium pentobarbital (40 mg/kg) and heparin (1,000 IU/kg) was administered via a femoral vein. Hearts were then removed and rapidly perfused through the aorta according to the technique described by Langendorff [Langendorff, O., Pflügers Arch. 61: 291, 1895] at a constant flow rate of 11 ml/minute. […] At the end of this period, systolic and diastolic ventricular pressures and heart beat rate (HR) were recorded through a pressure transducer linked to the ventricular balloon. Left Ventricular Developed Pressure (LVDP) was calculated by the difference between systolic and diastolic pressure and the product HR×LVDP was taken as an index of oxygen consumption. […] During this 15 minute reperfusion, heart rate, and diastolic and systolic pressures were monitored. Early ventricular fibrillations were analyzed 1 min. after the start of the reperfusion. […]
# Mitochondria were classified into Type A (normal), Type B (swollen, unbroken), and Type C (ruptured membranes). […] The results are expressed as percentages.
# [3] = test system: endotoxin-induced ALI in pigs; assay: Acute lung injury in endotoxemic pigs; assay type: in vivo; settings: treatment begun prior to LPS infusion
# Experimental: All pigs were pre-treated at T=−18 h with Escherichia coli 0111:B4 LPS (20 μg/kg). Pigs in the RL group (n=4) received no further treatment. […] Lung wet-to-dry weight ratio was determined post-mortem. Lung lipid peroxidation was estimated fluorometrically by measuring thiobarbituric acid reactive products in the lipid fraction of lung parenchymal tissue harvested at T=300 min.
smiles,measurement,setting,value
[Cl][Mn]1[O]c2ccccc2C=NCCN=Cc2ccccc2[O]1 [Compound C7],pIC50,[1],5.49
same,recovery of EPSP amplitude and slopes after ischemia/reoxygenation,Rat brain slices,recovered to pre-ischemia levels
same,"protection of hearts from ischemia/reoxygenation damage, functionally and structurally",[2]; C7 50 μM,effectively protected hearts
same,"Mitochondria Type B (swollen, unbroken)",[2]; electron microscopy after 15 minute reperfusion,15.2#□ %
same,effect on manifestations of LPS-induced ALI,[3],prevents many of the manifestations of LPS-induced ALI
